The assay addresses human p45MEK1 (GST-MEK) (Homo sapiens, UniProt Q02750). Nature of the assay: Assay for inhibitors of the MAP kinase pathway (coupled GST-MEK / GST-MAPK / MBP 33P incorporation assay). It is filed as biochemical. As to conditions: GST-MEK activated by c-raf, 60min at room temperature with inhibitor, MBP substrate. On the procedure:
To evaluate inhibitors of the MAPK pathway a coupled assay was carried out which measures phosphorylation of serine/threonine residues present in the substrate in the presence or absence of inhibitor. Recombinant glutathione S-transferase fusion protein containing human p45MEK1 (GST-MEK) was activated by c-raf (Sf9 insect cell lysate from triple baculoviral infection with c-raf/ras/lck) and used for the assay. Active GST-MEK was first used to activate a recombinant glutathione S-transferase fusion protein containing p44MAP kinase (GST-MAPK) in the presence of ATP and Mg^2+ for 60min at room temperature in the presence or absence of potential inhibitors. The activated GST-MAPK was then incubated with myelin basic protein (MBP) as substrate for 10min at room temperature in the presence of ATP, Mg^2+ and ^33P-ATP. The reaction was stopped by addition of 20% v/v phosphoric acid. Incorporation of ^33P into the myelin basic protein was determined by capture of the substrate on a filter mat, washing and counting using scintillation methods. The extent of inhibition was determined by comparison with untreated controls.
The final assay solution contained 10mM Tris, pH 7.5, 0.05mM EGTA, 8.33µM [γ^33P]ATP, 8.33mM Mg(OAc)2, 0.5mM sodium orthovanadate, 0.05%w/v BSA, 6.5ng GST-MEK, 1µg GST-MAPK and 16.5µg MBP in a reaction volume of 60µl.

human p45MEK1 (GST-MEK), sequence (Q02750 whole entry, the tested form may be a part): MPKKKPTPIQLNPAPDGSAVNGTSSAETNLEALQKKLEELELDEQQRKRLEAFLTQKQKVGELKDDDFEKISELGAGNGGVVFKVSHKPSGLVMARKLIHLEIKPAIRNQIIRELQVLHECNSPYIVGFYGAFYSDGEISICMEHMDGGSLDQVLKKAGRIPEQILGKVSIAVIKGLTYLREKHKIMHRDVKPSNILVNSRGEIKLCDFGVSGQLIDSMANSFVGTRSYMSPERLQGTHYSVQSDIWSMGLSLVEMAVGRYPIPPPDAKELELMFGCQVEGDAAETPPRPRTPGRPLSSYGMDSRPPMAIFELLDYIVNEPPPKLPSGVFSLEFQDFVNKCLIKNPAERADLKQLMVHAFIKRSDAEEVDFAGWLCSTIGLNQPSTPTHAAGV

`COc1cc2ncc(C#N)c(Nc3ccc(OCC4OCCO4)cc3)c2cc1OC` [Compound No 252] displayed an IC50 of 0.15 µM.

By IC50 is commonly meant the concentration that gives 50% inhibition. A lower IC50 goes with inhibition by little substance.

The values are drawn from patent EP1178967B1, “QUINOLINE DERIVATIVES AS INHIBITORS OF MEK ENZYMES” (AstraZeneca AB, priority 1999, dated 2000).
